From patent US8202886B2, “Small molecule E2F inhibitor” (H. Lee Moffitt Cancer Center and Research Institute, Inc., priority 2008, dated 2012)

System: 8226-s, 8226-dox40 and 8226-MR20
Assay: PARP cleavage western in drug sensitive and resistant 8226 lines
Format: cell-based, human
Conditions: 24 hours; 10 μM cisplatin or 10, 20 or 40 μM HLM006474
Experimental: Cells were collected 24 hours post drug exposure and extracts subjected to western blotting using antibodies to the indicated proteins. Cleavage of PARP indicates apoptosis.

SMILES	PARP cleavage (apoptosis) in sensitive versus resistant lines
N.N.[Cl][Pt][Cl] [cisplatin, reference compound]	Minimal PARP cleavage

System: E2F4-deficient MEFs
Assay: not given
Conditions: earlier work of the inventors (Ma et al., 2004); cited from earlier work

SMILES	sensitivity of E2F4-deficient MEFs to other drugs
CC(C)(C)c1cnc(CSc2cnc(NC(=O)C3CCNCC3)s2)o1 [SNS-032]	more sensitive
COc1cc([C@@H]2c3cc4c(cc3[C@@H](O[C@@H]3O[C@@H]5CO[C@@H](C)O[C@H]5[C@H](O)[C@H]3O)[C@H]3COC(=O)[C@H]23)OCO4)cc(OC)c1O [VP16, etoposide]	more sensitive
N.N.[Cl][Pt][Cl] [cisplatin, reference compound]	more sensitive
CN1CC[C@H](c2c(O)cc(O)c3c(=O)cc(-c4ccccc4Cl)oc23)[C@H](O)C1 [flavopiridol]	more sensitive
CC[C@H](CO)Nc1nc(NCc2ccccc2)c2ncn(C(C)C)c2n1 [roscovitine]	more sensitive
